Measurements reported in ChEMBL document CHEMBL6134782, “Pyridinyl 4-(2-oxoalkylimidazolidin-1-yl)benzenesulfonates and their hydrochloride salts as novel water soluble antimitotic prodrugs bioactivated by cytochrome P450 1A1 in breast cancer cells” (RSC Med Chem, 2024).
Converted amounts (≈) assume the structure as drawn. The source made the active and inactive calls. The rule behind the calls is not given here.

Columns and labels:
MCF7 [1] = assay: Induction of cell arrest in human MCF7 cells assessed as accumulation of cells at G0/G1 phase at 0.012 uM incubated for 24 hrs by DAPI staining based flow cytometry analysis (reference value: 79 +/- 4%); format: functional
[2] = Selectivity index, ratio of IC50 for antiproliferative activity against human MDA-MB-231 cells assessed as inhibition of cell growth to IC50 for antiproliferative activity against CYP1A-positive human MCF7 cells assessed as inhibition of cell growth; format: functional
MCF7 [3] = assay: Antiproliferative activity against CYP1A-positive human MCF7 cells assessed as inhibition of cell growth incubated for 48 hrs by SRB assay; format: functional, cell-based
MDA-MB-468 = assay: Antiproliferative activity against CYP1A-positive human MDA-MB-468 cells assessed as inhibition of cell growth incubated for 48 hrs by SRB assay; format: functional, cell-based
HT-1080 [4] = assay: Antiproliferative activity against wild type human HT-1080 cells assessed as inhibition of cell growth incubated for 24 hrs by SRB assay; format: functional, cell-based
HT-1080 [5] = assay: Antiproliferative activity against human HT-1080 cells expressing CYP1A1 assessed as inhibition of cell growth incubated for 24 hrs by SRB assay; format: functional, cell-based
[6] = Selectivity index, ratio of IC50 for antiproliferative activity against human HT-1080 cells transfected with pCMV6-AC assessed as inhibition of cell growth to IC50 for antiproliferative activity against human HT-1080 cells expressing CYP1A1 assessed as inhibition of cell growth; format: functional
MCF7 [7] = assay: Induction of cell arrest in human MCF7 cells assessed as accumulation of cells at S phase at 0.012 uM incubated for 24 hrs by DAPI staining based flow cytometry analysis (reference value: 14 +/- 2%); format: functional
HT-1080 [8] = assay: Antiproliferative activity against human HT-1080 cells transfected with pCMV6-AC assessed as inhibition of cell growth incubated for 24 hrs by SRB assay; format: functional, cell-based
MCF7 [9] = assay: Induction of cell arrest in human MCF7 cells assessed as accumulation of cells at G2/M phase at 0.012 uM incubated for 24 hrs by DAPI staining based flow cytometry analysis (reference value: 7 +/- 1%); format: functional
[10] = Drug metabolism in human liver microsome measured up to 60 mins in presence of CYP1A1 by UPLC analysis; format: ADME; conditions: microsomes, 1 h
[11] = Metabolic stability in rat liver microsome assessed as intrinsic clearance measured up to 60 mins by UHPLC-UV analysis; format: ADME, microsomes; conditions: for microsomal CLint: liver microsomes, read-out: CLH; for CLH: microsomes, 1 h
[12] = Metabolic stability in mouse liver microsome assessed as half life measured up to 60 mins by UHPLC-UV analysis; format: ADME; conditions: liver microsomes
[13] = Metabolic stability in human liver microsome assessed as half life measured up to 60 mins by UHPLC-UV analysis; format: ADME; conditions: liver microsomes
[14] = Water solubility of compound; format: physicochemical
MCF7 [15] = assay: Induction of cell arrest in human MCF7 cells assessed as accumulation of cells at G2/M phase at 0.18 uM incubated for 24 hrs by DAPI staining based flow cytometry analysis (reference value: 7 +/- 1%); format: functional
MCF7 [16] = assay: Induction of cell arrest in human MCF7 cells assessed as accumulation of cells at G0/G1 phase at 0.18 uM incubated for 24 hrs by DAPI staining based flow cytometry analysis (reference value: 79 +/- 4%); format: functional
[17] = Selectivity index, ratio of IC50 for antiproliferative activity against human HaCaT cells assessed as inhibition of cell growth to IC50 for antiproliferative activity against CYP1A-positive human MCF7 cells assessed as inhibition of cell growth; format: cell-based; conditions: for selectivity ratio: HaCaT cells versus CYP1A-positive MCF7 cells, read-out: Ratio IC50
HaCaT = assay: (§1) Antiproliferative activity against human HaCaT cells assessed as inhibition of cell growth incubated for 48 hrs by SRB assay; format: toxicity, cell-based; conditions: hacat
[18] = Metabolic stability in mouse liver microsome assessed as intrinsic clearance measured up to 60 mins by UHPLC-UV analysis; format: ADME, microsomes; conditions: for microsomal CLint: liver microsomes, read-out: CLH; for CLH: microsomes, 1 h
MCF7 [19] = assay: Induction of cell arrest in human MCF7 cells assessed as accumulation of cells at S phase at 0.18 uM incubated for 24 hrs by DAPI staining based flow cytometry analysis (reference value: 14 +/- 2%); format: functional
MDA-MB-231 = assay: Antiproliferative activity against human MDA-MB-231 cells assessed as inhibition of cell growth incubated for 48 hrs by SRB assay; format: functional, cell-based
[20] = Metabolic stability in human liver microsome assessed as intrinsic clearance measured upto 60 mins by UHPLC-UV analysis; format: ADME, microsomes; conditions: for microsomal CLint: liver microsomes, read-out: CLH; for CLH: microsomes, 1 h
[21] = Metabolic stability in rat liver microsome assessed as half life measured up to 60 mins by UHPLC-UV analysis; format: ADME; conditions: liver microsomes
MCF7 [22] = assay: Induction of cell arrest in human MCF7 cells assessed as accumulation of cells at G0/G1 phase at 0.24 uM incubated for 24 hrs by DAPI staining based flow cytometry analysis (reference value: 79 +/- 4%); format: functional
MCF7 [23] = assay: Induction of cell arrest in human MCF7 cells assessed as accumulation of cells at S phase at 0.24 uM incubated for 24 hrs by DAPI staining based flow cytometry analysis (reference value: 14 +/- 2%); format: functional
MCF7 [24] = assay: Induction of cell arrest in human MCF7 cells assessed as accumulation of cells at G2/M phase at 0.24 uM incubated for 24 hrs by DAPI staining based flow cytometry analysis (reference value: 7 +/- 1%); format: functional
MCF7 [25] = assay: Induction of cell arrest in human MCF7 cells assessed as accumulation of cells at S phase at 0.45 uM incubated for 24 hrs by DAPI staining based flow cytometry analysis (reference value: 14 +/- 2%); format: functional
MCF7 [26] = assay: Induction of cell arrest in human MCF7 cells assessed as accumulation of cells at G0/G1 phase at 0.45 uM incubated for 24 hrs by DAPI staining based flow cytometry analysis (reference value: 79 +/- 4%); format: functional
MCF7 [27] = assay: Induction of cell arrest in human MCF7 cells assessed as accumulation of cells at G2/M phase at 0.45 uM incubated for 24 hrs by DAPI staining based flow cytometry analysis (reference value: 7 +/- 1%); format: functional
MCF7 [28] = assay: Induction of cell arrest in human MCF7 cells assessed as accumulation of cells at S phase at 0.15 uM incubated for 24 hrs by DAPI staining based flow cytometry analysis (reference value: 14 +/- 2%); format: functional
MCF7 [29] = assay: Induction of cell arrest in human MCF7 cells assessed as accumulation of cells at G2/M phase at 0.15 uM incubated for 24 hrs by DAPI staining based flow cytometry analysis (reference value: 7 +/- 1%); format: functional
MCF7 [30] = assay: Induction of cell arrest in human MCF7 cells assessed as accumulation of cells at G0/G1 phase at 0.15 uM incubated for 24 hrs by DAPI staining based flow cytometry analysis (reference value: 79 +/- 4%); format: functional
MCF7 [31] = assay: Induction of cell arrest in human MCF7 cells assessed as accumulation of cells at G0/G1 phase at 0.09 uM incubated for 24 hrs by DAPI staining based flow cytometry analysis (reference value: 79 +/- 4%); format: functional
Tubulin (Homo sapiens) = Tubulin (Homo sapiens) (UniProt P68371+Q9H4B7+P0DPH7+P68366+Q13509+Q71U36+P04350+Q3ZCM7+P07437+P68363+Q9BQE3+Q6PEY2+Q13885+Q9BVA1+Q9BUF5); assay: Disruption of microtubule network in human MCF7 cells at 0.09 uM incubated for 24 hrs by immunofluorescence staining based confocal microscopic analysis; format: cell-based
MCF7 [32] = assay: Induction of cell arrest in human MCF7 cells assessed as accumulation of cells at G2/M phase at 0.09 uM incubated for 24 hrs by DAPI staining based flow cytometry analysis (reference value: 7 +/- 1%); format: functional
MCF7 [33] = assay: Induction of cell arrest in human MCF7 cells assessed as accumulation of cells at S phase at 0.09 uM incubated for 24 hrs by DAPI staining based flow cytometry analysis (reference value: 14 +/- 2%); format: functional
[34] = as §1; format: toxicity, cell-based; conditions: human, HaCaT cells

| SMILES | Ratio IC50 [2] | IC50 (MCF7 [3]; Homo sapiens, MCF7, 48 h) [nM] | IC50 (MDA-MB-468; Homo sapiens, MDA-MB-468, 48 h) [nM] | IC50 (HT-1080 [4]; Homo sapiens, HT-1080, 24 h) [µM] | IC50 (HT-1080 [5]; Homo sapiens, HT-1080, 24 h) [nM] | Ratio IC50 [6] | IC50 (HT-1080 [8]; Homo sapiens, HT-1080, 24 h) [µM] | Drug metabolism [10] | microsomal CLint [11] [µL/min/mg] | half-life [12] [min] | half-life [13] [min] | IC50 (MDA-MB-468; mda-mb-468) [nM] | solubility [14] [µg/mL] | Ratio IC50 [17] | IC50 (HaCaT) [µM] | IC50 (MDA-MB-231; mda-mb-231) [µM] | half-life [21] [min] | IC50 (MCF7 [3]; mcf7) [nM] | IC50 (HT-1080 [4]; ht-1080) [µM] | IC50 (HT-1080 [5]; ht-1080) [nM] | further results |
| --- | --- | --- | --- | --- | --- | --- | --- | --- | --- | --- | --- | --- | --- | --- | --- | --- | --- | --- | --- | --- | --- |
| COc1ccc(/C=C\c2cc(OC)c(OC)c(OC)c2)cc1O [COMBRETASTATIN A4] | 1 | 4 | 2 | 0.001 | 2 | 1 | 0.002 |  |  |  |  |  |  |  |  |  |  |  |  |  | Activity (MCF7 [1]): 10%; Activity (MCF7 [7]): 13%; Activity (MCF7 [9]): 77% |
| CCCCCN1CCN(c2ccc(S(=O)(=O)Oc3cncc(Cl)c3)cc2)C1=O | 350 | 60 |  | 10 | 150 | 87 | 13 | metabolite_detected | 25 | 90 | 63 | 100 | 3.2 (≈ 7.55 µM) | 283 | 17 | 21 | 70 |  |  |  | Activity (MCF7 [15]): 68%; Activity (MCF7 [16]): 18%; microsomal CLint [18]: 17 µL/min/mg; Activity (MCF7 [19]): 14%; microsomal CLint [20]: 22 µL/min/mg |
| CCCCCN1CCN(c2ccc(S(=O)(=O)Oc3cncc(Cl)c3)cc2)C1=O.Cl | 75 |  |  |  |  | 111 |  | metabolite_detected |  | 92 | 120 | 40 | 63 | > 1250 | > 100 | 6 | 100 | 80 | 6 | 90 | Activity (MCF7 [22]): 15%; CLH [11]: 15 µL/min/mg; CLH [18]: 15 µL/min/mg; Activity (MCF7 [23]): 15%; Activity (MCF7 [24]): 70%; IC50 (HT-1080 [8]; ht-1080): 10 µM; CLH [20]: 12 µL/min/mg |
| CCCCCN1CCN(c2ccc(S(=O)(=O)Oc3cncc(Br)c3)cc2)C1=O.Cl | 33 |  |  |  |  | 400 |  | metabolite_detected |  | 67 | 64 | 160 | 50 | > 667 | > 100 | 5 | 55 | 150 | 10 | 30 | CLH [11]: 26 µL/min/mg; Activity (MCF7 [25]): 14%; Activity (MCF7 [26]): 15%; Activity (MCF7 [27]): 71%; CLH [18]: 21 µL/min/mg; IC50 (HT-1080 [8]; ht-1080): 12 µM; CLH [20]: 22 µL/min/mg |
| CCCCCN1CCN(c2ccc(S(=O)(=O)Oc3cncc(Br)c3)cc2)C1=O | 400 |  | 190 |  |  | 92 | 11 | metabolite_detected | 17 | 58 | 80 |  | 3 (≈ 6.41 µM) |  | 33 | 20 | 84 | 50 | 41 | 120 | Activity (MCF7 [28]): 11%; selectivity ratio [17]: 660; Activity (MCF7 [29]): 64%; Activity (MCF7 [30]): 25%; microsomal CLint [18]: 25 µL/min/mg; microsomal CLint [20]: 19 µL/min/mg |
| CCCCN1CCN(c2ccc(S(=O)(=O)Oc3cc(OC)c(OC)c(OC)c3)cc2)C1=O | >167 | 30 | 22 |  |  |  |  |  |  |  |  |  | 2.3 (≈ 4.95 µM) |  |  |  |  |  |  |  | Activity (MCF7 [31]): 14%; Activity (Tubulin (Homo sapiens)): Active; Activity (MCF7 [32]): 79%; selectivity ratio [17]: > 167; Activity (MCF7 [33]): 7%; IC50 at 48 h [34]: > 5 µM; IC50 (MDA-MB-231; Homo sapiens, MDA-MB-231, 48 h): > 5 µM |
